Consider 31 compounds from BindingDB's records for doi:10.1016/j.bmc.2006.09.052 (Kirin Brewery, 2006).

The test is described as follows: Inhibition of MCP1-induced cell migration in U937 cells expressing CCR2 by chemotaxis assay.

`O=C(NCc1ccccc1)Nc1ccc2[nH]ncc2c1` [1-benzyl-3-(1H-indazol-5-yl)urea]: the 50% inhibitory concentration (IC50) is over 100 µM.
For `c1ccc(CN2CCCC(Oc3ccc4[nH]ncc4c3)C2)cc1` (stereo unspecified) [1-benzyl-3-piperidyl-(1H-5-indazolyl)ether], the IC50 is 1 µM.
The same measure for `c1ccc(CN2CCC(Oc3ccc4[nH]ncc4c3)CC2)cc1` [1-benzyl-4-piperidyl-(1H-5-indazolyl)ether]: 6 µM; for `O=C(Nc1ccc2[nH]ncc2c1)C1CCCN(Cc2ccccc2)C1` (stereo unspecified) [1-benzyl-N-(1H-indazol-5-yl)piperidine-3-carboxamide]: 1 µM; for `Fc1ccc(CN2CCCC(Nc3ccc4[nH]ncc4c3)C2)cc1F` (stereo unspecified) [N-(1-(3,4-difluorobenzyl)piperidin-3-yl)-1H-indazol-5-amine]: 1 µM.
Take `COc1cc(CN2CCCC(Nc3ccc4[nH]ncc4c3)C2)cc(OC)c1` (stereo unspecified) [N-(1-(3,5-dimethoxybenzyl)piperidin-3-yl)-1H-indazol-5-amine]: the IC50 was over 30 µM.
In the case of `Nc1ccc(CN2CCCC(Nc3ccc4[nH]ncc4c3)C2)cc1` (stereo unspecified) [N-(1-(4-aminobenzyl)piperidin-3-yl)-1H-indazol-5-amine], the IC50 was found to be 2 µM.
Compound `Clc1ccc(CN2CCCC(Nc3ccc4[nH]ncc4c3)C2)cc1` (stereo unspecified) [N-(1-(4-chlorobenzyl)piperidin-3-yl)-1H-indazol-5-amine] displayed an IC50 of 1 µM.
For the compound `Fc1ccc(CN2CCCC(Nc3ccc4[nH]ncc4c3)C2)cc1` (stereo unspecified) [N-(1-(4-fluorobenzyl)piperidin-3-yl)-1H-indazol-5-amine], the IC50 turned out to be 4 µM.
`COc1ccc(CN2CCCC(Nc3ccc4[nH]ncc4c3)C2)cc1` (stereo unspecified) [N-(1-(4-methoxybenzyl)piperidin-3-yl)-1H-indazol-5-amine] registered an IC50 of 1 µM.
With `Cc1ccc(CN2CCCC(Nc3ccc4[nH]ncc4c3)C2)cc1` (stereo unspecified) [N-(1-(4-methylbenzyl)piperidin-3-yl)-1H-indazol-5-amine], the IC50 came out at 1 µM.
The compound `O=[N+]([O-])c1ccc(CN2CCCC(Nc3ccc4[nH]ncc4c3)C2)cc1` (stereo unspecified) [N-(1-(4-nitrobenzyl)piperidin-3-yl)-1H-indazol-5-amine] gave a half-inhibitory concentration (IC50) of 19 µM.
Compound `c1coc(CN2CCCC(Nc3ccc4[nH]ncc4c3)C2)c1` (stereo unspecified) [N-(1-(furan-2-ylmethyl)piperidin-3-yl)-1H-indazol-5-amine] had an IC50 of 5 µM.
The compound `c1cc(CN2CCCC(Nc3ccc4[nH]ncc4c3)C2)ccn1` (stereo unspecified) [N-(1-(pyridin-4-ylmethyl)piperidin-3-yl)-1H-indazol-5-amine] came in with an IC50 of over 30 µM.
On to `c1csc(CN2CCCC(Nc3ccc4[nH]ncc4c3)C2)c1` (stereo unspecified) [N-(1-(thiophen-2-ylmethyl)piperidin-3-yl)-1H-indazol-5-amine], for which the midpoint of inhibition, the IC50, lay at 6 µM. That is a single-digit micromolar value.
As for `c1cc(CN2CCCC(Nc3ccc4[nH]ncc4c3)C2)cs1` (stereo unspecified) [N-(1-(thiophen-3-ylmethyl)piperidin-3-yl)-1H-indazol-5-amine], the IC50 worked out at 1 µM.
`c1ccc(CN2CCCC(Nc3ccc4[nH]ncc4c3)C2)cc1` (stereo unspecified) [N-(1-benzylpiperidin-3-yl)-1H-indazol-5-amine]: the midpoint of inhibition, the IC50, lay at 2 µM.
`c1ccc(CN2CCC(Nc3ccc4[nH]ncc4c3)CC2)cc1` [N-(1-benzylpiperidin-4-yl)-1H-indazol-5-amine] registered an IC50 of 30 µM. This IC50 lies about 15-fold higher than the previous one.
The compound `c1ccc(CN2CCC(Nc3ccc4[nH]ncc4c3)C2)cc1` (stereo unspecified) [N-(1-benzylpyrrolidin-3-yl)-1H-indazol-5-amine] yielded an IC50 of 10 µM.
Consider `O=C(NCc1ccc(Cl)cc1Cl)Nc1ccc2[nH]ncc2c1` [N-(2,4-dichlorobenzyl)-N0-(1H-5-indazolyl)urea], for which the IC50 was over 100 µM.
`O=C(NCc1c(F)cccc1F)Nc1ccc2[nH]ncc2c1` [N-(2,6-difluorobenzyl)-N0-(1H-5-indazolyl)urea] displayed an IC50 of over 100 µM.
On to `c1c[nH]c(CN2CCCC(Nc3ccc4[nH]ncc4c3)C2)c1` (stereo unspecified) [N-[1-(1H-2-pyrrolylmethyl)-3-piperidyl]-N-(1H-5-indazolyl)amine], for which the midpoint of inhibition, the IC50, lay at 10 µM.
As for `Nc1ccccc1CN1CCCC(Nc2ccc3[nH]ncc3c2)C1` (stereo unspecified) [N-[1-(2-aminobenzyl)-3-piperidyl]-N-(1H-5-indazolyl)amine], inhibition was half-maximal at 1 µM (IC50).
As for `Clc1ccccc1CN1CCCC(Nc2ccc3[nH]ncc3c2)C1` (stereo unspecified) [N-[1-(2-chlorobenzyl)-3-piperidyl]-N-(1H-5-indazolyl)amine], half-maximal inhibition (IC50) required 8 µM. This IC50 lies about 8-fold higher than the previous one.
Consider `Clc1ccccc1CN1CCC(Nc2ccc3[nH]ncc3c2)C1` (stereo unspecified) [N-[1-(2-chlorobenzyl)-3-pyrrolidyl]-N-(1H-5-indazolyl)amine], for which it took 7 µM to reach half-maximal inhibition (IC50).
The same measure for `Nc1cccc(CN2CCCC(Nc3ccc4[nH]ncc4c3)C2)c1` (stereo unspecified) [N-[1-(3-aminobenzyl)-3-piperidyl]-N-(1H-5-indazolyl)amine]: 3 µM; for `Clc1cccc(CN2CCCC(Nc3ccc4[nH]ncc4c3)C2)c1` (stereo unspecified) [N-[1-(3-chlorobenzyl)-3-piperidyl]-N-(1H-5-indazolyl)amine]: 8 µM.
Compound `Clc1cccc(CN2CCC(Nc3ccc4[nH]ncc4c3)C2)c1` (stereo unspecified) [N-[1-(3-chlorobenzyl)-3-pyrrolidyl]-N-(1H-5-indazolyl)amine] returned an IC50 of 5 µM.
In the case of `O=[N+]([O-])c1cccc(CN2CCCC(Nc3ccc4[nH]ncc4c3)C2)c1` (stereo unspecified) [N-[1-(3-nitrobenzyl)-3-piperidyl]-N-(1H-5-indazolyl)amine], the IC50 came to 19 µM.
As to `c1cncc(CN2CCCC(Nc3ccc4[nH]ncc4c3)C2)c1` (stereo unspecified) [N-[1-(3-pyridylmethyl)-3-piperidyl]-N-(1H-5-indazolyl)amine], the IC50 was determined as 20 µM.
In turn, `Clc1ccc(CN2CCC(Nc3ccc4[nH]ncc4c3)C2)cc1` (stereo unspecified) [N-[1-(4-chlorobenzyl)-3-pyrrolidyl]-N-(1H-5-indazolyl)amine] returned an IC50 of 1 µM.

As a reminder, the IC50 is the concentration needed to halve the response being measured. High values mean weaker potency, low ones greater potency.
